What was measured:
[1] = XTT assay, SupT1 24STNLESG cells; format: cell-based; conditions: human
Procedure: Additional file 1: Figure S1. 791 and 833 Suppress HIV-1 Gene Expression in SupT1 24NESLG Cell Line. a Schematic of HIV-1 provirus used to generated the stably transduced SupT1 cell line. b Effect of 791 and 833 on Gag expression in SupT1 NLESG cells. Cells were treated with indicated concentrations of 791/833 then HIV-1 expression induced by PMA addition. Media harvested after 24 h was subsequently assayed using Gag (p24) ELISA. Cell viability was measured by an XTT assay. 892 was not active in this cell line at the concentrations tested Additional file 2: Figure S7. Effect of compounds on CEM-GXR cell viability. Evaluation of 791, 833, and 892 on CEM-GXR cell viability in the Guava ViaCount assay. Cells were analyzed after 24 h incubation with the compounds at the indicated concentrations ranging between 0–47 μM (791), 0–5 μM (833), or 0–62.5 μM (892). Results are expressed as the percentage (%) of viable cells relative to DMSO treatment ±SEM of two independent experiments performed in triplicate. […] Images are cropped to show a representative field of view. b The dose range of the compounds which inhibit HIV-1 GagGFP expression in HeLa rtTA HIVGagGFP C7 cells was measured by mean fluorescence intensity and expressed relative to fluorescence intensity in DMSO-treated samples (N ≥ 3, *p ≤ 0.05, **p ≤ 0.01, and ***p ≤ 0.001). […]

PBMCs = test: Trypan blue exclusion, PBMCs; format: cell-based, human; conditions: PBMCs
Procedure: To examine the effect of compounds on viral replication, studies were carried out in peripheral blood mononuclear cells (PBMCs). PBMCs were isolated from healthy (HIV-uninfected) volunteer blood donors as described by Dobson-Belaire et al.. Informed consent was obtained from participants in accordance with the guidelines for conduct of clinical research at the University of Toronto and St. Michael’s Hospital, Toronto, Ontario, Canada. Stored PBMCs were thawed, washed with RPMI 1640 complete medium and cultured in RPMI 1640 complete medium containing 2 μg/mL of PHA-L (Sigma-Aldrich) and 20 U/mL of IL-2 (BD Pharmingen) for 72 h. Subsequently, cells were counted and a portion of the cells was separated to another tube for uninfected control treatments. The remaining PBMCs were resuspended in media containing HIV-1 BaL at a multiplicity of infection (MOI) of approximately 0.01 and infected by spinoculation, following which cells were washed twice with room temperature RPMI 1640 complete medium and resuspended to a concentration of 5 × 10^5 cells/mL in complete RPMI 1640 containing 20 U/mL of IL-2. Compounds were added to infected PBMCs or uninfected control PBMCs. Azidothymidine (AZT, Sigma-Aldrich) was used as control treatment at a final concentration of 3.74 μM. On day 4 post infection, culture medium was replenished with the compounds and IL-2 in fresh complete RPMI 1640. On days 2, 4, 6 and 8 post infection, culture supernatant was harvested, virus lysed by adjusting to 1% TritonX-100 and stored at −20 °C for p24 antigen ELISA. A fraction of the culture was harvested to assess percent cell viability by trypan blue exclusion using Glasstic slides (Kova). Relative percent cell viability in compound treated samples versus DMSO-control treated samples was calculated as follows: (total viable cells/total cells)compound/(total viable cells/total cells)DMSO.

HeLa rtTA HIV∆Mls cells = test: Trypan blue exclusion, HeLa; format: cell-based; conditions: up to 10 µM
Procedure: Effects of compound treatment on cellular metabolism was assessed by an XTT-based in vitro toxicology assay kit (Sigma-Aldrich) or Trypan blue exclusion (Life Technologies) as proxy for degree of cytotoxicity and expressed relative to DMSO control treatment. For measurement of cell viability using XTT, culture media was removed after 24, 72, and 96 h of compound treatment, replaced with 20% XTT solution and incubated at 37 °C in a 5% CO2 humidified incubator for 2–6 h, and relative cell viability was measured in compound treated cells relative to DMSO-treated cells. Cell viability measurements in CEM-GXR cells are described above.

Structure (SMILES)	CC50 at 24 h [1] [µM]	toxicity at concentrations required to block HIV-1 replication (PBMCs)	Trypan blue exclusion (HeLa rtTA HIV∆Mls cells)
Cc1cc(NCc2cccnc2)n2ncc(-c3ccc(Cl)cc3)c2n1 [Compound 791, 3-(4-chlorophenyl)-5-methyl-N-(3-pyridinylmethyl)pyrazolo[1,5-a]pyrimidin-7-amine]	> 60		
O=C(NC(=S)NNC(=O)c1ccccc1O)c1ccc(-c2ccccc2)cc1 [Compound 833, N-([2-(2-hydroxybenzoyl)hydrazino]carbonothioyl}-4-biphenylcarboxamide]	> 20	displayed toxicity	no change
COc1ccc(C=NNC(=O)c2ccccc2O)cc1O [Compound 892, 2-hydroxy-N′-(3-hydroxy-4-methoxybenzylidene)benzohydrazide]		displayed toxicity	

Source: paper PMC5267425, “Identification of small molecule modulators of HIV-1 Tat and Rev protein accumulation” (Retrovirology, 2017)
